Values of other authors as cited in article PMC10360060, “Electroosmotic Perfusion, External Microdialysis: Simulation and Experiment” (ACS Chemical Neuroscience, 2023).
Where two headings read alike, the source gives them in different places.

Columns and labels:
[1] = test system: insulin regulated aminopeptidase (IRAP); details: perfusion of inhibitor in rat neocortex in vivo, online capillary LC-MS2
Text: Following our discovery that brain tissue has a significant ζ-potential,[36] we learned how to use this property of brain tissue to infuse solutes into brain and organotypic hippocampal slice cultures (OHSCs) using controlled electrical current[37],[38] and to infuse substrates of known ectoenzymes and determine information about these enzymes in OHSCs[39]−[43] and in vivo.[44] For the in vivo work, direct laser writing by two-photon polymerization was used to manufacture a device (Supporting Information, section S3). A pointed, narrow capillary adjacent to a microdialysis probe was the source ...

[2] = saline solution, parameter used in simulations, ref Li and Carr, Scheibel, Häckel et al.[65]−[67]
Text: Table 1 List of Parameters Used in Simulations | column: magnitude

[3] = 37 °C (body temperature, tissue)

Compound: CCOC(=O)C1=C(NC(C)=O)Oc2cc(O)ccc2C1c1cccnc1 (centres unmarked) [HFI-419]
- inhibition of YGGFL hydrolysis [1]: dose-dependent inhibition

Compound: GGFL [hydrolysis product of YGGFL]
- Diffusion coefficients ([2]; 22 °C (lab temperature)): 5.0 × 10^–10 m^2/s
- Diffusion coefficients [2, 3]: 6.5 × 10^–10 m^2/s

Compound: YGGFL [leucine enkephalin, natural neuropeptide substrate infused through tissue]
- Diffusion coefficients ([2]; 22 °C (lab temperature)): 4.2 × 10^–10 m^2/s
- Diffusion coefficients [2, 3]: 5.5 × 10^–10 m^2/s
